In patent US12473296B2, “Perk inhibiting compounds” (HiberCell, Inc., priority 2019, dated 2025):

Molecular target: EIF2AK3 (PERK) catalytic domain (amino acids 536-1116) (Homo sapiens (Human), UniProt Q9NZJ5)
Test: PERK in vitro activity assay (isolated), TR-FRET kinase assay
Settings: isolated PERK enzyme, 1.5 μM ATP, GFP-eIF2a substrate; read-out: Biochemical IC50
Excerpt: PERK In Vitro Activity Assay (Isolated):
In vitro Inhibition of PERK Enzyme Activity (isolated) Recombinant human EIF2AK2 (PKR) catalytic domain (amino acids 252-551), EIF2AK3 (PERK) catalytic domain (amino acids 536-1116), GFP-eIF2a substrate, and Terbium-labelled phospho-eIF2a antibody is obtained (Invitrogen, Carlsbad, CA).
Express and purify HIS-SUMO-GCN2 catalytic domain (amino acids 584-1019) from E. coli. Perform TR-FRET kinase assays in the absence or presence of inhibitors in a reaction buffer consisting of 50 mM HEPES, pH 7.5, 10 mM MgCb, 1.0 mM EGTA, and 0.01% Brij-35, and 100-200 nM GFP-eIF2a substrate. […] Add test compound, initiate the reaction by addition of enzyme, and incubate at room temperature for 45 minutes. Stop the reaction by addition of EDTA to a final concentration of 10 mM, add Terbium-labelled phospho-eIF2a antibody at a final concentration of 2 nM, and incubate for 90 minutes. Monitor the resulting fluorescence in an EnVison® Multilabel reader (PerkinElmer, Waltham, MA). Determine TR-FRET ratios and the resulting IC50 values using a 4-parameter nonlinear logistic equation as shown: Y=(A+((B−A)/(1+((C/x)[…])))) where, Y=% specific inhibition, A=Bottom of the curve, B=Top of the curve, C=absolute IC50 (concentration causing 50% inhibition), and D=hill slope.

Sequence of EIF2AK3 (PERK) catalytic domain (amino acids 536-1116) (Q9NZJ5 536-1116): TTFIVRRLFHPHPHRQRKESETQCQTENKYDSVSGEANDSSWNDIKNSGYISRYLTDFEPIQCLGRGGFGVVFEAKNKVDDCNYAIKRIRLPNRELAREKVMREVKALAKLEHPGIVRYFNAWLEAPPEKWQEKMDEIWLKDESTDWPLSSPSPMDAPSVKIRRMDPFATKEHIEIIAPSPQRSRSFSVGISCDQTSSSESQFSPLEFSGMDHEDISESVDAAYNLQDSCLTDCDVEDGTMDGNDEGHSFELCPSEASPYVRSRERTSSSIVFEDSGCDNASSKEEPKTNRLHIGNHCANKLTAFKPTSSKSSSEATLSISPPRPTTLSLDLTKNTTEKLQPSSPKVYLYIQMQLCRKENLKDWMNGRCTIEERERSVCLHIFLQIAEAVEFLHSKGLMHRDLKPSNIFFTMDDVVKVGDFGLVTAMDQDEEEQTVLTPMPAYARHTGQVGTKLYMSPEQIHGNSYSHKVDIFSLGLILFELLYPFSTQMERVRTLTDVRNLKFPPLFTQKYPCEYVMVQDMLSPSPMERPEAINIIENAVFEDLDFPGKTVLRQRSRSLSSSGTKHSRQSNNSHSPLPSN

How did the IC50 turn out when `CCc1ccccc1CC(=O)Nc1ccc(-c2cnc(N)c(C(=O)NC(C)C)c2)c(C)c1` [Example 204, 2-amino-5-(4-(2-(2-ethylphenyl)acetamido)-2-methylphenyl)-N-isopropylnicotinamide] was run?
Its IC50 is 101 to 250 nM.

Molecular target: PERK (Homo sapiens (Human), UniProt Q9NZJ5)
Sequence (Q9NZJ5 30-1116): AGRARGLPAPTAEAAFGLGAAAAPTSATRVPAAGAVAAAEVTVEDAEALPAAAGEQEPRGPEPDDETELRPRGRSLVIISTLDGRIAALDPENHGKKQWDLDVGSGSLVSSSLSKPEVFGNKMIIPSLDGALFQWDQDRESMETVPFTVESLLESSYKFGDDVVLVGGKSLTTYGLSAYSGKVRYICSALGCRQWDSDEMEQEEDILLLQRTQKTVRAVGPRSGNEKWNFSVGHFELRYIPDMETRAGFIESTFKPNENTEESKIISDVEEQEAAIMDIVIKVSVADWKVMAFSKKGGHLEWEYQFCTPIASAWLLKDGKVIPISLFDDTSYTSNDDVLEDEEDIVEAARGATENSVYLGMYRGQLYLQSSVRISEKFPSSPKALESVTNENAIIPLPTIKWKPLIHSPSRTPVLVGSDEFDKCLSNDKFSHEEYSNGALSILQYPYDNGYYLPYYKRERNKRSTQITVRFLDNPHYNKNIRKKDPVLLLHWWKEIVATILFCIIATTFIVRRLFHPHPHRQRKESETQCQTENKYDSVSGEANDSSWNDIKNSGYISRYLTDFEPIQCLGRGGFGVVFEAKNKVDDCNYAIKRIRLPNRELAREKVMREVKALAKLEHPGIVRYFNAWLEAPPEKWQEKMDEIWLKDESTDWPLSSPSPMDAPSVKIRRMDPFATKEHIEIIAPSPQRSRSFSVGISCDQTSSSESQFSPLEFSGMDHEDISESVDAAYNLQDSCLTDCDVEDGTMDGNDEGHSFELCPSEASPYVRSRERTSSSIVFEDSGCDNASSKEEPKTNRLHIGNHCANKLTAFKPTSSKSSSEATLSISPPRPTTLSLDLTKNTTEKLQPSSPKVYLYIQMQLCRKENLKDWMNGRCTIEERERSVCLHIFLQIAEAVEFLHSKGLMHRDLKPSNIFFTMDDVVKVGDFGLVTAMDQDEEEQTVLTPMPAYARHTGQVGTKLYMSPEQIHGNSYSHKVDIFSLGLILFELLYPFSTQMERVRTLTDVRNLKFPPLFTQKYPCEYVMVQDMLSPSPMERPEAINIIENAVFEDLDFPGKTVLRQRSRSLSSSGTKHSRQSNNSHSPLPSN
Test: PERK cellular assay (TR-FRET, HEK293-EGFP-eIF2α cells, tunicamycin-induced ER stress)
Type: cell-based
Settings: tunicamycin 2 hours, read-out: Cellular IC50 (μM) (EIF2a)
Description: Stable cell lines were created in HEK293 cells using lentiviral particles harboring an expression vector for GFP-eIF2α. Cells were selected using puromycin and enriched using fluorescence activated cell sorting against GFP. HEK293-EGFP-eIF2α cells were plated at 5000 cells/well in 384-well assay plates and incubated overnight at 37° C., 5% CO2. Inhibitor compounds were added to the wells by Echo acoustic dispensing and incubated for 30 minutes at 37° C., 5% CO2 prior to induction of ER stress by addition of tunicamycin to […] for 2 hours. Cells were lysed and TR-FRET was measured in an EnVision plate reader (PerkinElmer). FRET ratio data was normalized to signal from lysates treated with DMSO vehicle control and plotted as percent inhibition against 10-point; 3-fold dilution series of inhibitors. IC50 values were calculated using 4-parameter logistical fitting in XLFit.

For `Cc1cc(NC(=O)C(O)c2cc(F)cc(F)c2)ccc1-c1cnc(N)c(C(=O)NC2CCC2)n1` (centres unmarked) [Example 140, 3-amino-N-cyclobutyl-6-(4-(2-(3,5-difluorophenyl)-2-hydroxyacetamido)-2-methylphenyl) pyrazine-2-carboxamide], which IC50 is on record?
Its IC50 is 0.026 to 0.05 µM.

`Cc1cc(NC(=O)C(O)c2cc(F)cc(F)c2)ccc1-c1cnc(N)c(C(=O)NC2CCOCC2)c1` (centres unmarked) [Example 50, 2-amino-5-(4-(2-(3,5-difluorophenyl)-2-hydroxyacetamido)-2-methylphenyl)-N-(tetrahydro-2H-pyran-4-yl)nicotinamide] was tested. Which IC50 did it give?
Its IC50 is 0.051 to 0.1 µM.

For `Nc1ncc(-c2ccc(NC(=O)C(O)c3cc(F)cc(F)c3)cc2Cl)nc1C(=O)NC1CC1` (centres unmarked) [Example 166, 3-amino-6-(2-chloro-4-(2-(3,5-difluorophenyl)-2-hydroxyacetamido)phenyl)-N-cyclopropyl-pyrazine-2-carboxamide], which IC50 is on record?
Its IC50 is 0.026 to 0.05 µM.

How did the IC50 turn out when `CC(C)NC(=O)c1nc(-c2ccc(NC(=O)C(O)c3cc(F)cc(F)c3)cc2Cl)cnc1N` (centres unmarked) [Example 162, 3-amino-6-(2-chloro-4-(2-(3,5-difluorophenyl)-2-hydroxyacetamido)phenyl)-N-isopropylpyrazine-2-carboxamide] was run?
The IC50 was 0.101 to 0.25 µM.

How did the IC50 turn out when `CCc1cc(NC(=O)C(O)c2ccccc2C)ccc1-c1cnc(N)c(C(=O)NC(C)C)c1` (single isomer, unassigned) [Example 104, 2-amino-5-(2-ethyl-4-(2-hydroxy-2-(o-tolyl)acetamido)phenyl)-N-isopropylnicotinamide] was run?
The IC50 was 0.051 to 0.1 µM.

With `Cc1cccc(C(O)C(=O)Nc2ccc(-c3cnc(N)c(C(=O)NC(C)C)c3)c(Cl)c2)c1` (centres unmarked) [Example 92, 2-amino-5-(2-chloro-4-(2-hydroxy-2-(m-tolyl)acetamido)phenyl)-N-isopropylnicotinamide] as the compound, how does the IC50 read?
The IC50 was 0.001 to 0.025 µM.

How did the IC50 turn out when `Cc1cc(NC(=O)C(O)c2cc(F)cc(F)c2)ccc1-c1cnc(N)c(C(=O)NC2CCC2)n1` (centres unmarked) [Example 141, 3-amino-N-cyclobutyl-6-(4-(2-(3,5-difluorophenyl)-2-hydroxyacetamido)-2-methylphenyl) pyrazine-2-carboxamide] was run?
Its IC50 is 0.101 to 0.25 µM.

How did the IC50 turn out when `COCCNC(=O)c1cc(-c2ccc(NC(=O)C(O)c3cc(F)cc(F)c3)cc2C)cnc1N` (centres unmarked) [Example 55, 2-amino-5-(4-(2-(3,5-difluorophenyl)-2-hydroxyacetamido)-2-methylphenyl)-N-(2-methoxyethyl) nicotinamide] was run?
The IC50 was 1 to 2 µM.

`Cc1cc(NC(=O)C(O)c2cc(F)cc(F)c2)ccc1-c1cnc(N)c(C(=O)NC2COC2)n1` (centres unmarked) [Example 143, 3-amino-6-(4-(2-(3,5-difluorophenyl)-2-hydroxyacetamido)-2-methylphenyl)-N-(oxetan-3-yl)pyrazine-2-carboxamide] was tested. Which IC50 did it give?
Its IC50 is 0.026 to 0.05 µM.

With `Cc1ccccc1CC(=O)Nc1ccc(-c2cnc(N)c(C(=O)NC(C)C)c2)c(C)c1` [Example 195, 2-amino-N-isopropyl-5-(2-methyl-4-(2-(o-tolyl)acetamido)phenyl)nicotinamide] as the compound, how does the IC50 read?
Its IC50 is 0.251 to 0.5 µM.

For `Cc1cc(NC(=O)C(O)c2ccccc2C)ccc1-c1cnc(N)c(C(=O)NC(C)C)c1` (centres unmarked) [Example 64, 2-amino-5-(4-(2-hydroxy-2-(o-tolyl)acetamido)-2-methylphenyl)-N-isopropylnicotinamide], which IC50 is on record?
The IC50 was 0.101 to 0.25 µM.

`Cc1cccc(C(O)C(=O)Nc2ccc(-c3cnc(N)c(C(=O)NC(C)C)c3)c(Cl)c2)c1` (centres unmarked) [Example 93, 2-amino-5-(2-chloro-4-(2-hydroxy-2-(m-tolyl)acetamido)phenyl)-N-isopropylnicotinamide] was tested. Which IC50 did it give?
Its IC50 is 0.101 to 0.25 µM.

How did the IC50 turn out when `CC(C)NC(=O)c1nc(-c2ccc(NC(=O)C(O)c3cc(F)cc(F)c3)cc2Cl)cnc1N` (centres unmarked) [Example 163, 3-amino-6-(2-chloro-4-(2-(3,5-difluorophenyl)-2-hydroxyacetamido)phenyl)-N-isopropylpyrazine-2-carboxamide] was run?
The IC50 was 0.051 to 0.1 µM.

With `Nc1ncc(-c2ccc(NC(=O)C(O)c3cc(F)cc(F)c3)cc2Cl)nc1C(=O)NC1CC1` (centres unmarked) [Example 167] as the compound, how does the IC50 read?
Its IC50 is 0.101 to 0.25 µM.

`Cc1cc(NC(=O)C(O)c2cccc(C(F)(F)F)c2)ccc1-c1cnc(N)c(C(=O)NC(C)C)c1` (centres unmarked) [Example 71, 2-amino-5-(4-(2-hydroxy-2-(3-(trifluoromethyl)phenyl)acetamido)-2-methylphenyl)-N-isopropylnicotinamide] was tested. Which IC50 did it give?
The IC50 was 0.501 to 1 µM.

`Cc1cc(NC(=O)C(O)c2cc(F)cc(F)c2)ccc1-c1cnc(N)c(C(=O)NC2COC2)n1` (centres unmarked) [Example 142, 3-amino-6-(4-(2-(3,5-difluorophenyl)-2-hydroxyacetamido)-2-methylphenyl)-N-(oxetan-3-yl)pyrazine-2-carboxamide] was tested. Which IC50 did it give?
The IC50 was 1 to 2 µM.

Which IC50 does the source give for `COCCNC(=O)c1nc(-c2ccc(NC(=O)C(O)c3cc(F)cc(F)c3)cc2C)cnc1N` (single isomer, unassigned) [Example 147, 3-amino-6-(4-(2-(3,5-difluorophenyl)-2-hydroxyacetamido)-2-methylphenyl)-N-(2-methoxyethyl) pyrazine-2-carboxamide] here?
Its IC50 is 0.026 to 0.05 µM.

`Cc1cc(NC(=O)C(O)c2ccccc2C)ccc1-c1cnc(N)c(C(=O)NC(C)C)c1` (centres unmarked) [Example 65, 2-amino-5-(4-(2-hydroxy-2-(o-tolyl)acetamido)-2-methylphenyl)-N-isopropylnicotinamide] was tested. Which IC50 did it give?
The IC50 was 2 to 3 µM.

With `Cc1ccccc1C(O)C(=O)Nc1ccc(-c2cnc(N)c(C(=O)NC(C)C)c2)c(Cl)c1` (centres unmarked) [Example 91, 2-amino-5-(2-chloro-4-(2-hydroxy-2-(o-tolyl)acetamido)phenyl)-N-isopropylnicotinamide] as the compound, how does the IC50 read?
The IC50 was 0.251 to 0.5 µM.

How did the IC50 turn out when `Cc1cc(NC(=O)C(O)c2cccc(C(F)(F)F)c2)ccc1-c1cnc(N)c(C(=O)NC(C)C)c1` (centres unmarked) [Example 70, 2-amino-5-(4-(2-hydroxy-2-(3-(trifluoromethyl)phenyl)acetamido)-2-methylphenyl)-N-isopropylnicotinamide] was run?
Its IC50 is 0.001 to 0.025 µM.

`CCc1cc(NC(=O)C(O)c2ccccc2C)ccc1-c1cnc(N)c(C(=O)NC(C)C)c1` (single isomer, unassigned) [Example 105, 2-amino-5-(2-ethyl-4-(2-hydroxy-2-(o-tolyl)acetamido)phenyl)-N-isopropylnicotinamide] was tested. Which IC50 did it give?
Its IC50 is 0.501 to 1 µM.

With `Cc1ccccc1C(O)C(=O)Nc1ccc(-c2cnc(N)c(C(=O)NC(C)C)c2)c(Cl)c1` (centres unmarked) [Example 90, 2-amino-5-(2-chloro-4-(2-hydroxy-2-(o-tolyl)acetamido)phenyl)-N-isopropylnicotinamide] as the compound, how does the IC50 read?
The IC50 was 0.051 to 0.1 µM.

For `COCCNC(=O)c1cc(-c2ccc(NC(=O)C(O)c3cc(F)cc(F)c3)cc2C)cnc1N` (centres unmarked) [Example 54, 2-amino-5-(4-(2-(3,5-difluorophenyl)-2-hydroxyacetamido)-2-methylphenyl)-N-(2-methoxyethyl) nicotinamide], which IC50 is on record?
The IC50 was 0.051 to 0.1 µM.

`Cc1cc(NC(=O)C(O)c2cc(F)cc(F)c2)ccc1-c1cnc(N)c(C(=O)NC2CCOCC2)n1` (single isomer, unassigned) [Example 145, 3-amino-6-(4-(2-(3,5-difluorophenyl)-2-hydroxyacetamido)-2-methylphenyl)-N-(tetrahydro-2H-pyran-4-yl)pyrazine-2-carboxamide] was tested. Which IC50 did it give?
The IC50 was 0.051 to 0.1 µM.

With `Cc1cc(NC(=O)C(O)c2cc(F)cc(F)c2)ccc1-c1cnc(N)c(C(=O)NC2CCOCC2)c1` (centres unmarked) [Example 51, 2-amino-5-(4-(2-(3,5-difluorophenyl)-2-hydroxyacetamido)-2-methylphenyl)-N-(tetrahydro-2H-pyran-4-yl)nicotinamide] as the compound, how does the IC50 read?
Its IC50 is 0.501 to 1 µM.

For `Cc1cccc(CC(=O)Nc2ccc(-c3cnc(N)c(C(=O)NC(C)C)c3)c(C)c2)c1` [Example 196, 2-amino-N-isopropyl-5-(2-methyl-4-(2-(m-tolyl)acetamido)phenyl)nicotinamide], which IC50 is on record?
The IC50 was 0.251 to 0.5 µM.

`Cc1cc(NC(=O)C(O)c2cc(F)cc(F)c2)ccc1-c1cnc(N)c(C(=O)NC2CCOCC2)n1` (single isomer, unassigned) [Example 144, 3-amino-6-(4-(2-(3,5-difluorophenyl)-2-hydroxyacetamido)-2-methylphenyl)-N-(tetrahydro-2H-pyran-4-yl)pyrazine-2-carboxamide] was tested. Which IC50 did it give?
The IC50 was 0.501 to 1 µM.

With `COCCNC(=O)c1nc(-c2ccc(NC(=O)C(O)c3cc(F)cc(F)c3)cc2C)cnc1N` (single isomer, unassigned) [Example 148, 3-amino-6-(4-(2-(3,5-difluorophenyl)-2-hydroxyacetamido)-2-methylphenyl)-N-(2-methoxyethyl) pyrazine-2-carboxamide] as the compound, how does the IC50 read?
Its IC50 is 0.501 to 1 µM.
